In ChEMBL document CHEMBL4229379, “Synthesis and structure-activity relationship of novel bisindole amidines active against MDR Gram-positive and Gram-negative bacteria” (Eur J Med Chem, 2018):
In brackets after ≈: the same amount, converted by molar mass.

Columns and labels:
Enterococcus faecalis [1] = experiment: Antibacterial activity against vancomycin-resistant Enterococcus faecalis ATCC 51299 after 18 hrs by CLSI broth microdilution method; assay type: functional; conditions: ATCC 51299, 18 h
Pseudomonas aeruginosa [2] = experiment: Antibacterial activity against Pseudomonas aeruginosa ATCC 27853 after 18 hrs by CLSI broth microdilution method; assay type: functional; conditions: ATCC 27853, 18 h
Enterococcus faecalis [3] = experiment: Antibacterial activity against vancomycin-sensitive Enterococcus faecalis 12-5 after 18 hrs by CLSI broth microdilution method; assay type: functional; conditions: 12-5, 18 h
Staphylococcus aureus [4] = experiment: Antibacterial activity against methicillin-resistant Staphylococcus aureus ATCC 33591 after 18 hrs by CLSI broth microdilution method; assay type: functional; conditions: ATCC 33591, 18 h
[5] = system: Staphylococcus epidermidis; experiment: Antibacterial activity against methicillin-resistant Staphylococcus epidermidis 12-8 after 18 hrs by CLSI broth microdilution method; assay type: functional; conditions: 12-8, 18 h
Enterococcus faecalis [6] = experiment: Antibacterial activity against vancomycin-resistant Enterococcus faecalis 09-9 after 18 hrs by CLSI broth microdilution method; assay type: functional; conditions: 09-9, 18 h
[7] = system: Stenotrophomonas maltophilia; experiment: Antibacterial activity against Stenotrophomonas maltophilia ATCC 13636 after 18 hrs by CLSI broth microdilution method; assay type: functional; conditions: ATCC 13636, 18 h
Staphylococcus aureus [8] = experiment: Antibacterial activity against methicillin-resistant Staphylococcus aureus 12-33 after 18 hrs by CLSI broth microdilution method; assay type: functional; conditions: 12-33, 18 h
Citrobacter freundii = experiment: Antibacterial activity against Citrobacter freundii ATCC 43864 after 18 hrs by CLSI broth microdilution method; assay type: functional; conditions: ATCC 43864, 18 h
Klebsiella pneumoniae [9] = experiment: Antibacterial activity against extended-spectrum beta-lactamase deficient Klebsiella pneumoniae 12-4 after 18 hrs by CLSI broth microdilution method; assay type: functional; conditions: 12-4, 18 h
[10] = system: Acinetobacter calcoaceticus; experiment: Antibacterial activity against Acinetobacter calcoaceticus ATCC 19606 after 18 hrs by CLSI broth microdilution method; assay type: functional; conditions: ATCC 19606, 18 h
Proteus mirabilis = experiment: Antibacterial activity against Proteus mirabilis 12-6 after 18 hrs by CLSI broth microdilution method; assay type: functional; conditions: 12-6, 18 h
Klebsiella pneumoniae [11] = experiment: Antibacterial activity against extended-spectrum beta-lactamase deficient Klebsiella pneumoniae 7 after 18 hrs by CLSI broth microdilution method; assay type: functional; conditions: Klebsiella pneumoniae, 7, 18 h
Staphylococcus aureus [12] = experiment: Antibacterial activity against methicillin-sensitive Staphylococcus aureus 12-28 after 18 hrs by CLSI broth microdilution method; assay type: functional; conditions: 12-28, 18 h
Staphylococcus aureus [13] = experiment: Antibacterial activity against methicillin-sensitive Staphylococcus aureus 15 after 18 hrs by CLSI broth microdilution method; assay type: functional; conditions: Staphylococcus aureus, 15, 18 h
Enterococcus faecium [14] = experiment: Antibacterial activity against vancomycin-resistant Enterococcus faecium ATCC 700221 after 18 hrs by CLSI broth microdilution method; assay type: functional; conditions: ATCC 700221, 18 h
Pseudomonas aeruginosa [15] = experiment: Antibacterial activity against Pseudomonas aeruginosa 12-16 after 18 hrs by CLSI broth microdilution method; assay type: functional; conditions: 12-16, 18 h
Escherichia coli [16] = experiment: Antibacterial activity against extended-spectrum beta-lactamase deficient Escherichia coli 12-14 after 18 hrs by CLSI broth microdilution method; assay type: functional; conditions: 12-14, 18 h
[17] = system: Staphylococcus epidermidis; experiment: Antibacterial activity against methicillin-sensitive Staphylococcus epidermidis 12-6 after 18 hrs by CLSI broth microdilution method; assay type: functional; conditions: 12-6, 18 h
[18] = system: Staphylococcus epidermidis; experiment: Antibacterial activity against methicillin-sensitive Staphylococcus epidermidis ATCC 12228 after 18 hrs by CLSI broth microdilution method; assay type: functional; conditions: ATCC 12228, 18 h
[19] = Cytotoxicity against HEK293T cells assessed as reduction in cell viability after 48 hrs by MTS assay; assay type: cell-based, HEK-293T; conditions: human
Klebsiella pneumoniae [20] = experiment: Antibacterial activity against new delhi metallo-beta-lactamase-1 harboring Klebsiella pneumoniae ATCC BAA-2146 after 18 hrs by CLSI broth microdilution method; assay type: functional; conditions: ATCC BAA-2146, 18 h
Klebsiella aerogenes = experiment: Antibacterial activity against Enterobacter aerogenes ATCC 13048 after 18 hrs by CLSI broth microdilution method; assay type: functional; conditions: ATCC 13048, 18 h
Enterobacter cloacae = experiment: Antibacterial activity against Enterobacter cloacae ATCC 43560 after 18 hrs by CLSI broth microdilution method; assay type: functional; conditions: ATCC 43560, 18 h
Escherichia coli [21] = experiment: Antibacterial activity against extended-spectrum beta-lactamase deficient Escherichia coli ATCC 25922 after 18 hrs by CLSI broth microdilution method; assay type: functional; conditions: ATCC 25922, 18 h
Enterococcus faecalis [22] = experiment: Antibacterial activity against vancomycin-sensitive Enterococcus faecalis ATCC 29212 after 18 hrs by CLSI broth microdilution method; assay type: functional; conditions: ATCC 29212, 18 h
Enterococcus faecium [23] = experiment: Antibacterial activity against vancomycin-resistant Enterococcus faecium 12-1 after 18 hrs by CLSI broth microdilution method; assay type: functional; conditions: 12-1, 18 h
Klebsiella pneumoniae [24] = experiment: Antibacterial activity against extended-spectrum beta-lactamase harboring Klebsiella pneumoniae 12-8 after 18 hrs by CLSI broth microdilution method; assay type: functional; conditions: 12-8, 18 h
Pseudomonas aeruginosa [25] = experiment: Antibacterial activity against Pseudomonas aeruginosa PAO1 after 18 hrs by CLSI broth microdilution method; assay type: functional; conditions: PAO1, 18 h
Serratia marcescens = experiment: Antibacterial activity against Serratia marcescens ATCC 21074 after 18 hrs by CLSI broth microdilution method; assay type: functional; conditions: ATCC 21074, 18 h
Staphylococcus aureus [26] = experiment: Antibacterial activity against methicillin-sensitive Staphylococcus aureus ATCC 29213 after 18 hrs by CLSI broth microdilution method; assay type: functional; conditions: ATCC 29213, 18 h
Escherichia coli [27] = experiment: Antibacterial activity against extended-spectrum beta-lactamase harboring Escherichia coli 12-15 after 18 hrs by CLSI broth microdilution method; assay type: functional; conditions: 12-15, 18 h
Proteus vulgaris = experiment: Antibacterial activity against Proteus vulgaris ATCC 29905 after 18 hrs by CLSI broth microdilution method; assay type: functional; conditions: ATCC 29905, 18 h
Enterococcus faecium [28] = experiment: Antibacterial activity against vancomycin-sensitive Enterococcus faecium 12-3 after 18 hrs by CLSI broth microdilution method; assay type: functional; conditions: 12-3, 18 h
Providencia rettgeri = experiment: Antibacterial activity against Providencia rettgeri ATCC 31052 after 18 hrs by CLSI broth microdilution method; assay type: functional; conditions: ATCC 31052, 18 h
Klebsiella pneumoniae [29] = experiment: Antibacterial activity against extended-spectrum beta-lactamase harboring Klebsiella pneumoniae ATCC 700603 after 18 hrs by CLSI broth microdilution method; assay type: functional; conditions: Klebsiella pneumoniae, 700603, 18 h
Escherichia coli [30] = experiment: Antibacterial activity against extended-spectrum beta-lactamase deficient Escherichia coli 1515 after 18 hrs by CLSI broth microdilution method; assay type: functional; conditions: Escherichia coli, 1515, 18 h

| Compound | MIC (Enterococcus faecalis [1]) [µg/mL] | MIC (Pseudomonas aeruginosa [2]) [µg/mL] | MIC (Enterococcus faecalis [3]) [µg/mL] | MIC (Staphylococcus aureus [4]) [µg/mL] | MIC [5] [µg/mL] | MIC (Enterococcus faecalis [6]) [µg/mL] | MIC [7] [µg/mL] | MIC (Staphylococcus aureus [8]) [µg/mL] | MIC (Citrobacter freundii) [µg/mL] | MIC (Klebsiella pneumoniae [9]) [µg/mL] | MIC [10] [µg/mL] | MIC (Proteus mirabilis) [µg/mL] | MIC (Klebsiella pneumoniae [11]) [µg/mL] | MIC (Staphylococcus aureus [12]) [µg/mL] | MIC (Staphylococcus aureus [13]) [µg/mL] | MIC (Enterococcus faecium [14]) [µg/mL] | MIC (Pseudomonas aeruginosa [15]) [µg/mL] | MIC (Escherichia coli [16]) [µg/mL] | MIC [17] [µg/mL] | MIC [18] [µg/mL] | further results |
| --- | --- | --- | --- | --- | --- | --- | --- | --- | --- | --- | --- | --- | --- | --- | --- | --- | --- | --- | --- | --- | --- |
| c1cc2cc(-c3ccc(-c4cc5ccc(C6=NCCCN6)cc5[nH]4)cc3)[nH]c2cc1C1=NCCCN1 | 0.5 (≈ 1.06 µM) | 4 (≈ 8.46 µM) | 0.5 (≈ 1.06 µM) | 0.25 (≈ 0.529 µM) | 0.25 (≈ 0.529 µM) | 0.5 (≈ 1.06 µM) | 4 (≈ 8.46 µM) | 0.25 (≈ 0.529 µM) | 4 (≈ 8.46 µM) | 8 (≈ 16.9 µM) | 64 (≈ 135 µM) | 128 (≈ 271 µM) | 8 (≈ 16.9 µM) | 0.25 (≈ 0.529 µM) | 0.25 (≈ 0.529 µM) | 0.25 (≈ 0.529 µM) | 16 (≈ 33.9 µM) | 4 (≈ 8.46 µM) | 0.25 (≈ 0.529 µM) | 0.25 (≈ 0.529 µM) | CC50 at 48 h [19]: 4.33 µg/mL (≈ 9.16 µM); MIC (Klebsiella pneumoniae [20]): 16 µg/mL (≈ 33.9 µM); MIC (Klebsiella aerogenes): 8 µg/mL (≈ 16.9 µM); MIC (Enterobacter cloacae): 8 µg/mL (≈ 16.9 µM); MIC (Escherichia coli [21]): 4 µg/mL (≈ 8.46 µM); MIC (Enterococcus faecalis [22]): 0.5 µg/mL (≈ 1.06 µM); MIC (Enterococcus faecium [23]): 0.25 µg/mL (≈ 0.529 µM); MIC (Klebsiella pneumoniae [24]): 8 µg/mL (≈ 16.9 µM); MIC (Pseudomonas aeruginosa [25]): 4 µg/mL (≈ 8.46 µM); MIC (Serratia marcescens): 16 µg/mL (≈ 33.9 µM); MIC (Staphylococcus aureus [26]): 0.25 µg/mL (≈ 0.529 µM); MIC (Escherichia coli [27]): 8 µg/mL (≈ 16.9 µM); MIC (Proteus vulgaris): 16 µg/mL (≈ 33.9 µM); MIC (Enterococcus faecium [28]): 1 µg/mL (≈ 2.12 µM); MIC (Providencia rettgeri): 8 µg/mL (≈ 16.9 µM); MIC (Klebsiella pneumoniae [29]): 32 µg/mL (≈ 67.7 µM); MIC (Escherichia coli [30]): 8 µg/mL (≈ 16.9 µM) |
| CN1CCN(C(=N)c2ccc3cc(-c4ccc(-c5cc6ccc(C(=N)N7CCN(C)CC7)cc6[nH]5)cc4)[nH]c3c2)CC1 | 64 (≈ 115 µM) | 64 (≈ 115 µM) | 64 (≈ 115 µM) | 1 (≈ 1.79 µM) | 1 (≈ 1.79 µM) | 8 (≈ 14.3 µM) | 128 (≈ 229 µM) | 1 (≈ 1.79 µM) | 8 (≈ 14.3 µM) | 64 (≈ 115 µM) | 128 (≈ 229 µM) | > 128 | 16 (≈ 28.6 µM) | 1 (≈ 1.79 µM) | 1 (≈ 1.79 µM) | 8 (≈ 14.3 µM) | > 128 | 8 (≈ 14.3 µM) | 2 (≈ 3.58 µM) | 1 (≈ 1.79 µM) | CC50 at 48 h [19]: 18.9 µg/mL (≈ 33.9 µM); MIC (Klebsiella pneumoniae [20]): 16 µg/mL (≈ 28.6 µM); MIC (Klebsiella aerogenes): 16 µg/mL (≈ 28.6 µM); MIC (Enterobacter cloacae): 8 µg/mL (≈ 14.3 µM); MIC (Escherichia coli [21]): 8 µg/mL (≈ 14.3 µM); MIC (Enterococcus faecalis [22]): 8 µg/mL (≈ 14.3 µM); MIC (Enterococcus faecium [23]): 8 µg/mL (≈ 14.3 µM); MIC (Klebsiella pneumoniae [24]): 16 µg/mL (≈ 28.6 µM); MIC (Pseudomonas aeruginosa [25]): 128 µg/mL (≈ 229 µM); MIC (Serratia marcescens): > 128 µg/mL; MIC (Staphylococcus aureus [26]): 1 µg/mL (≈ 1.79 µM); MIC (Escherichia coli [27]): 8 µg/mL (≈ 14.3 µM); MIC (Proteus vulgaris): 16 µg/mL (≈ 28.6 µM); MIC (Enterococcus faecium [28]): 8 µg/mL (≈ 14.3 µM); MIC (Providencia rettgeri): 8 µg/mL (≈ 14.3 µM); MIC (Klebsiella pneumoniae [29]): 64 µg/mL (≈ 115 µM); MIC (Escherichia coli [30]): 8 µg/mL (≈ 14.3 µM) |
